Assay results reported in patent US12590091B2, “1H-pyrrolo[3,2-C]pyridine and 1H-pyrrolo[2,3-C]pyridine derivatives as TLR9 inhibitors for the treatment of fibrosis” (BRISTOL-MYERS SQUIBB COMPANY, priority 2020, dated 2026).

Molecular target: T1, human TLR7 (Homo sapiens, UniProt Q9NYK1)
T1 construct: host or cells: HEK-Blue cells
T1 sequence (Q9NYK1 27-1049): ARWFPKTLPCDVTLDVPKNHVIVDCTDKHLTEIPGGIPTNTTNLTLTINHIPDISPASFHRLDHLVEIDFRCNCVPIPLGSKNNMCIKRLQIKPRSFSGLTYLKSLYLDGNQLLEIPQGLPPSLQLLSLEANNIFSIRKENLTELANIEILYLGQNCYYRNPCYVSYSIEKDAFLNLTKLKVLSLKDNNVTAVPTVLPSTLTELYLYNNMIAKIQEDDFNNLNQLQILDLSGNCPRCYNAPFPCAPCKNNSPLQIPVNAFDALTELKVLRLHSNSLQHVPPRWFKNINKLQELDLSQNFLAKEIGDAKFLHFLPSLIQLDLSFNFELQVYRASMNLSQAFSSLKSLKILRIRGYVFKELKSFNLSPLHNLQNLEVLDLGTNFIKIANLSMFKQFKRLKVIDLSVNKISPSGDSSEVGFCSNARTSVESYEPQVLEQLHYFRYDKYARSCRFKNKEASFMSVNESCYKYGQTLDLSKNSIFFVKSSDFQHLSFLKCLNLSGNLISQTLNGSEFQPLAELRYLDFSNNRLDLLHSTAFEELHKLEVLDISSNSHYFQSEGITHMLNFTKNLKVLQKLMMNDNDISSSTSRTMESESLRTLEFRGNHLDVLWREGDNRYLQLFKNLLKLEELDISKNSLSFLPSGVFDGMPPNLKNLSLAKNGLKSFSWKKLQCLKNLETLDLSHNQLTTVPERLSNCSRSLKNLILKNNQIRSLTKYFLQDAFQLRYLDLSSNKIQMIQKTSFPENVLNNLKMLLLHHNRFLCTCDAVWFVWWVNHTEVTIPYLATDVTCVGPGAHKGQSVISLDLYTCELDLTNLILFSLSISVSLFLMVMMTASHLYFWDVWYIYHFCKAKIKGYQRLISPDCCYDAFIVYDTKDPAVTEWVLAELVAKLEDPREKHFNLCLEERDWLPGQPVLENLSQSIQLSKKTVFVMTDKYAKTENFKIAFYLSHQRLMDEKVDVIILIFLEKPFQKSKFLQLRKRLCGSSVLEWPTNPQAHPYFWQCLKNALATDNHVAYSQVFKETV
Test: TLR7 inhibition reporter assay (HEK-Blue cells, SEAP reporter)
Assay type: cell-based
Details: HEK-Blue cells overexpressing human TLR7, stimulated with gardiquimod 7.5 μM, 22 hour incubation
Summary of the method: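 Dose–response from 0.05 nM to 50 μM was run in HEK-Blue human TLR7, TLR8 and TLR9 reporter cells. After 30 min at room temperature with compound, ligand was added (TLR7 gardiquimod 7.5 μM; TLR8 R848 15.9 μM; TLR9 ODN2006 5 nM) and SEAP measured next day, at 22 h.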

Compound	IC50
COCCN1C2CCC1CN(c1ccc(-c3cc4c(cc(-c5ccc(S(C)(=O)=O)cc5)n4C)c(C)n3)cc1)C2 [Example 74, 6-(4-(8-(2-methoxyethyl)-3,8-diazabicyclo[3.2.1]octan-3-yl)phenyl)-1,4-dimethyl-2-(4-(methylsulfonyl)phenyl)-1H-pyrrolo[3,2-c]pyridine]	1.6 µM
COCCN1C2CCC1CN(c1ccc(-c3cc4c(cc(-c5ccc(S(C)(=O)=O)cc5)n4C)c(C)n3)cc1F)C2 [Example 75, 6-(3-fluoro-4-(8-(2-methoxyethyl)-3,8-diazabicyclo[3.2.1]octan-3-yl)phenyl)-1,4-dimethyl-2-(4-(methylsulfonyl)phenyl)-1H-pyrrolo[3,2-c]pyridine]	2.2 µM
Cc1nc(-c2ccc(N3CC4CCC(C3)N4CCCO)cc2)cc2c1cc(-c1ccc(S(C)(=O)=O)cc1)n2C [Example 76, 3-(3-(4-(1,4-dimethyl-2-(4-(methylsulfonyl)phenyl)-1H-pyrrolo[3,2-c]pyridin-6-yl)phenyl)-3,8-diazabicyclo[3.2.1]octan-8-yl)propan-1-ol]	0.6 µM
Cc1nc(-c2ccc(N3CC4CCC(C3)N4CCCO)c(F)c2)cc2c1cc(-c1ccc(S(C)(=O)=O)cc1)n2C [Example 77, 3-(3-(4-(1,4-dimethyl-2-(4-(methylsulfonyl)phenyl)-1H-pyrrolo[3,2-c]pyridin-6-yl)-2-fluorophenyl)-3,8-diazabicyclo[3.2.1]octan-8-yl)propan-1-ol]	1.9 µM
COCCN1C2CCC1CN(c1cc(F)c(-c3cc4c(cc(-c5ccc(S(C)(=O)=O)cc5)n4C)c(C)n3)cc1F)C2 [Example 78, 6-(2,5-difluoro-4-(8-(2-methoxyethyl)-3,8-diazabicyclo[3.2.1]octan-3-yl)phenyl)-1,4-dimethyl-2-(4-(methylsulfonyl)phenyl)-1H-pyrrolo[3,2-c]pyridine]	2.7 µM
Cc1nc(-c2cc(F)c(N3CC4CCC(C3)N4CCCO)cc2F)cc2c1cc(-c1ccc(S(C)(=O)=O)cc1)n2C [Example 79, 3-(3-(4-(1,4-dimethyl-2-(4-(methylsulfonyl)phenyl)-1H-pyrrolo[3,2-c]pyridin-6-yl)-2,5-difluorophenyl)-3,8-diazabicyclo[3.2.1]octan-8-yl) propan-1-ol]	2.7 µM
Cc1nc(-c2ccc(N3CCN(CC(C)C)CC3)c(F)c2F)cc2c1cc(-c1ccc(S(C)(=O)=O)cc1)n2C [Example 82, 6-(2,3-difluoro-4-(4-isobutylpiperazin-1-yl)phenyl)-1,4-dimethyl-2-(4-(methylsulfonyl)phenyl)-1H-pyrrolo[3,2-c]pyridine]	6.4 µM

Now from value to compound:

IC50	Compound
2.2 µM	Cc1nc(-c2ccc(C3(O)CCN(C4CC4)CC3)cc2)cc2c1cc(-c1ccc(S(C)(=O)=O)cc1)n2C [Example 87, 1-cyclopropyl-4-(4-(1,4-dimethyl-2-(4-(methylsulfonyl)phenyl)-1H-pyrrolo[3,2-c]pyridin-6-yl)phenyl)piperidin-4-ol]
6.5 µM	Cc1nc(-c2ccc(C3(O)CCN(C(C)C)CC3)cc2)cc2c1cc(-c1ccc(S(C)(=O)=O)cc1)n2C [Example 88, 4-(4-(1,4-dimethyl-2-(4-(methylsulfonyl)phenyl)-1H-pyrrolo[3,2-c]pyridin-6-yl)phenyl)-1-isopropylpiperidin-4-ol]
1.5 µM	Cc1nc(-c2ccc(N3CCN4CCCC4C3)c(F)c2F)cc2c1cc(-c1ccc(S(C)(=O)=O)cc1)n2C (centres unmarked) [Example 99, 6-(2,3-difluoro-4-(hexahydropyrrolo[1,2-a]pyrazin-2(1H)-yl)phenyl)-1,4-dimethyl-2-(4-(methylsulfonyl)phenyl)-1H-pyrrolo[3,2-c]pyridine]
7.1 µM	Cc1nc(-c2ccc(C3(O)CC4CCC(C3)N4C(C)C)c(F)c2)cc2c1cc(-c1ccc(S(C)(=O)=O)cc1)n2C [Example 100, (1R,3r,5S)-3-(4-(1,4-dimethyl-2-(4-(methylsulfonyl)phenyl)-1H-pyrrolo[3,2-c]pyridin-6-yl)-2-fluorophenyl)-8-isopropyl-8-azabicyclo[3.2.1]octan-3-ol]
